From ChEMBL document CHEMBL6103593, “Design of Selective BRD4 Inhibitors for the Treatment of Autosomal Dominant Polycystic Kidney Disease” (J Med Chem, 2025)

Assays:
[1] = biological target: T1, Bromodomain-containing protein 2 (Homo sapiens, UniProt P25440); test: Inhibition of BRD2 bromodomain 1 (67 to 200 residues) (unknown origin) extracted from Escherichia coli […] codon plus RIL cells incubated for 4 hrs by fluorescence anisotropy
[2] = biological target: T1, Bromodomain-containing protein 2; test: Inhibition of BRD2 bromodomain 2 (348 to 455 residues) (unknown origin) extracted from Escherichia coli […] codon plus RIL cells incubated for 4 hrs by fluorescence anisotropy
[3] = biological target: Histone acetyltransferase p300 (Homo sapiens, UniProt Q09472); test: Inhibition of EP300 (1039 to 1161 residues) (unknown origin) extracted from Escherichia coli […] codon plus RIL cells incubated for 4 hrs by fluorescence anisotropy
Histone acetyltransferase p300, sequence (Q09472 whole entry, the tested form may be a part): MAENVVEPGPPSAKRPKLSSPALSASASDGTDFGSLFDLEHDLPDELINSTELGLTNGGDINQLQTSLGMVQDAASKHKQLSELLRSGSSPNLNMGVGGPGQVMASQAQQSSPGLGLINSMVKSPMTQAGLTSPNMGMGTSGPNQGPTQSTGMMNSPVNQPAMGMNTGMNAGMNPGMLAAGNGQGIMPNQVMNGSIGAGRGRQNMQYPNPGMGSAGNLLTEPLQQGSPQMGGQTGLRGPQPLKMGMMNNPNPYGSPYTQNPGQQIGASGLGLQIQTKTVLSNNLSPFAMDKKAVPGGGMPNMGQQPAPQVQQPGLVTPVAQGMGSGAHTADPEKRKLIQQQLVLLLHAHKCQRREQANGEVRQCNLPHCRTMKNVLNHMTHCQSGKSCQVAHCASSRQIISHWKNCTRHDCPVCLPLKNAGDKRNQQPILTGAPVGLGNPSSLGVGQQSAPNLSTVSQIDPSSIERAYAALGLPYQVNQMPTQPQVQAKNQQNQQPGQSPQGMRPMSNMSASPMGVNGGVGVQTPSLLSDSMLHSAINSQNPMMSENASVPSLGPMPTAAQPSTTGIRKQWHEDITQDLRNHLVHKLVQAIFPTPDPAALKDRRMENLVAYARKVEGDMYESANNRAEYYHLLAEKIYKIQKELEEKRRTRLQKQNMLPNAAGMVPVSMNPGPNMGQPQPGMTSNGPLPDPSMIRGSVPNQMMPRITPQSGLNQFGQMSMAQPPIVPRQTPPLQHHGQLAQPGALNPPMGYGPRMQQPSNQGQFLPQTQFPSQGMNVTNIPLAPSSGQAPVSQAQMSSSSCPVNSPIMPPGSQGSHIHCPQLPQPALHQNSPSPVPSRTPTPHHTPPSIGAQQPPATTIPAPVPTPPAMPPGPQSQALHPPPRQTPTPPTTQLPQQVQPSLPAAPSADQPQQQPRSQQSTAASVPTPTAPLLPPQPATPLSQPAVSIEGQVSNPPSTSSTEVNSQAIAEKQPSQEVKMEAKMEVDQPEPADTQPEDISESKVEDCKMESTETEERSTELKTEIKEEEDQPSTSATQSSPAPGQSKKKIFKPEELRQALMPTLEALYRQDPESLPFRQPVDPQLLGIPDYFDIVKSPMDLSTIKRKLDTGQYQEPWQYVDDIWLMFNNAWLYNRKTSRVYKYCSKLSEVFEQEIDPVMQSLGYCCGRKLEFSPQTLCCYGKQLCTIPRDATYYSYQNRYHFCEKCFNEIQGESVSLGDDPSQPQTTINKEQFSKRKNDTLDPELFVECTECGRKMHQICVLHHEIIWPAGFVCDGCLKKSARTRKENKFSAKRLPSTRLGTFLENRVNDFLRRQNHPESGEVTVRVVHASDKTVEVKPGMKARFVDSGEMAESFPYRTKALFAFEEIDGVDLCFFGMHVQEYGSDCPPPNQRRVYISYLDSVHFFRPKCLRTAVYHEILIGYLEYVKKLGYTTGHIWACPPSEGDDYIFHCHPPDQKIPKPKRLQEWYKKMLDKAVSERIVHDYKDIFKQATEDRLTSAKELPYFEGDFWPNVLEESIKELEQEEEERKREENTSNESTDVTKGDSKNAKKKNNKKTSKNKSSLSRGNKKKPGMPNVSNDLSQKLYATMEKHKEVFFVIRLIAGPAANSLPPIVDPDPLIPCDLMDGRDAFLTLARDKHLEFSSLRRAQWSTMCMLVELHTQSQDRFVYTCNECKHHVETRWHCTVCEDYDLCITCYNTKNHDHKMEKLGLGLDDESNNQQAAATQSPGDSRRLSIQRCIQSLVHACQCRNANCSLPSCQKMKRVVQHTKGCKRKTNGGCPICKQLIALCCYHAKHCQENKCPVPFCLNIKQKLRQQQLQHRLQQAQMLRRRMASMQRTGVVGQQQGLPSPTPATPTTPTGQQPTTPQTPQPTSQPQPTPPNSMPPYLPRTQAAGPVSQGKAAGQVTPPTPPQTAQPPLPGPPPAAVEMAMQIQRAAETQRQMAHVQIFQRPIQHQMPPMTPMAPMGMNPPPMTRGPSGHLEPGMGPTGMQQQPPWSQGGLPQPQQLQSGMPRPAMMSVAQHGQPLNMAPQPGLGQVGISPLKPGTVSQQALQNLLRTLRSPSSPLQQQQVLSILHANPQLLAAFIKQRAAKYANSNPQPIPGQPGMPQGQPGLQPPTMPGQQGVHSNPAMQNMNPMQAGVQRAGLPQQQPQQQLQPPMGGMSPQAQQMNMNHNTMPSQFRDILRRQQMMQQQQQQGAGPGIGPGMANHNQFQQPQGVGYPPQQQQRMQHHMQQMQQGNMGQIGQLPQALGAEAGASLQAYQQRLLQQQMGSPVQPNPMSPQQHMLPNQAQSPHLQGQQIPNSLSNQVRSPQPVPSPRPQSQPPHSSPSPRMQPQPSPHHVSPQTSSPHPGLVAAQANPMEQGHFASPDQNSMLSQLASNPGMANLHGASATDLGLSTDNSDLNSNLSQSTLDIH

[4] = biological target: T2, Bromodomain-containing protein 4 (Homo sapiens, UniProt O60885); test: Inhibition of BRD4 bromodomain 1 (44 to 168 residues) (unknown origin) extracted from Escherichia coli […] codon plus RIL cells incubated for 4 hrs by fluorescence anisotropy
[5] = biological target: T2, Bromodomain-containing protein 4; test: Inhibition of BRD4 bromodomain 2 (332 to 460 residues) (unknown origin) extracted from Escherichia coli […] codon plus RIL cells incubated for 4 hrs by fluorescence anisotropy

T1 sequence (P25440 whole entry, the tested form may be a part): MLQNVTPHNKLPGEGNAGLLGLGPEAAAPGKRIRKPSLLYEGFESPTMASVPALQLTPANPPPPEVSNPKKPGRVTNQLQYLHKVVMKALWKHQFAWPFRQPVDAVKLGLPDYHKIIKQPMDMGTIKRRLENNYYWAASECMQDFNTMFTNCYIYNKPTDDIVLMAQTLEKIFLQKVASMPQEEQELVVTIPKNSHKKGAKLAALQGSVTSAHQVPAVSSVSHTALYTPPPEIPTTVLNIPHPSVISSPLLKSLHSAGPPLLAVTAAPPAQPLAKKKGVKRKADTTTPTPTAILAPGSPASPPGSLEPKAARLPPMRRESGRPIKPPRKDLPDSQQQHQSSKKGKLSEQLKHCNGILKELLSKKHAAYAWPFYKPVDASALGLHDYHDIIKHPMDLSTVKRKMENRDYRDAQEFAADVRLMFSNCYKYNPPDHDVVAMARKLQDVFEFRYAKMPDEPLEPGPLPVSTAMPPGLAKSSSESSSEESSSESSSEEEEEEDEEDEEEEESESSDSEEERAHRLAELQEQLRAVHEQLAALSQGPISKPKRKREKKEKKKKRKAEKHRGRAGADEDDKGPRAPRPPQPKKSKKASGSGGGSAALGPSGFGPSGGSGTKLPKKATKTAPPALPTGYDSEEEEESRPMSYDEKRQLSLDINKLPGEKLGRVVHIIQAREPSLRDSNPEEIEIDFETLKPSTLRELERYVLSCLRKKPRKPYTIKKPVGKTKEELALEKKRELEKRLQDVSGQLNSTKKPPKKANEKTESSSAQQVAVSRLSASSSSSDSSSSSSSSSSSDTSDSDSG

IC50 [1] [nM] | IC50 [2] [nM] | IC50 [3] [nM] | IC50 [4] [nM] | IC50 [5] [nM] | Compound
50.5 | 291 | > 1000 |  |  | Cc1cc(Nc2nn(C)c3ccccc23)nc(Nc2ccc3c(c2)N(C(C)C)[C@H](C)C(=O)N3C)n1
 |  |  | 504 | 2070 | CCc1cc(Nc2cccc(Cl)c2)nc(Nc2ccc3c(c2)N(C(C)C)[C@H](C)C(=O)N3C)n1
29.3 | 302 | > 1000 |  |  | CCc1cc(Nc2nn(C)c3ccccc23)nc(Nc2ccc3c(c2)N(C(C)C)[C@H](C)C(=O)N3C)n1
31.8 | 233 | > 1000 |  |  | CC(C)N1c2cc(Nc3nccc(Nc4nn(C)c5ccccc45)n3)ccc2N(C)C(=O)[C@H]1C
